Test results taken from ChEMBL document CHEMBL5725333, “Fumagillol heterocyclic compounds and methods of making and using same” (2017).

Biological target: Methionine aminopeptidase 2 (Homo sapiens, UniProt P50579)
Test: 10 mM stock solutions of compounds were prepared in 100% DMSO and further diluted in 100% DMSO required concentration to 1 mM stocks. The stock compound solutions and DMSO vehicle controls were diluted to target final compound concentrations using assay buffer to a final concentration of 50 mM HEPES containing 100 mM NaCl, pH adjusted to 7.5. The MAS peptide was formulated to a 7.5 mM stock in distilled water and prior to use further diluted 1:4. […] 40 μl of enzyme was mixed with 100 μl of MnCl2 then further diluted in assay buffer to a final concentration of 16 μg/ml. To test for compound effect on MetAP2 enzyme activity, 5 μl of test compound, 10 μl of MAS substrate/amino acid oxidase mixture, 10 μl of MetAP2 was added to test wells in a 384 well black plate with blank wells containing no enzyme, replaced with 10 μl of assay buffer. All compounds were tested in duplicate on two occasions on the same day. […] The plate was sealed with a TopSeal A cover and mixed briefly on an orbital mixer at 900 rpm. The plate was incubated for a further 25 minutes at 25° C. A 5× stock of Amplex buffer was prepared (0.25M sodium phosphate, pH 7.4) and stored at 4° C. […] 25 μl detection reagent was added to each well of the test plate, which was re-sealed and mixed briefly on an orbital shaker.

Sequence of Methionine aminopeptidase 2 (P50579 whole entry): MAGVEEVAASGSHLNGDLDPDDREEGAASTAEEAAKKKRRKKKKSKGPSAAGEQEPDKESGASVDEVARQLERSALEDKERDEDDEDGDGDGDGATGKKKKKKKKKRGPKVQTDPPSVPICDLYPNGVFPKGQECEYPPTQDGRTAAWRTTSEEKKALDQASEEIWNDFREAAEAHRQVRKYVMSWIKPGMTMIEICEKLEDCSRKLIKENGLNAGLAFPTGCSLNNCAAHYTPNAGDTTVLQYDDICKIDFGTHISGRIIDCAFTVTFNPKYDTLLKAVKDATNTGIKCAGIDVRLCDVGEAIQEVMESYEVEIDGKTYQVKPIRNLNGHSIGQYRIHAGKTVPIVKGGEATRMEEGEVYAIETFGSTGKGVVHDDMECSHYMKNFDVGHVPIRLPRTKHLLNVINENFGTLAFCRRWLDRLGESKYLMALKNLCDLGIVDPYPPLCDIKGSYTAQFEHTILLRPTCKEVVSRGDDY

| IC50 [nM] | SMILES |
| --- | --- |
| < 50 | CCN(CC)CCNC(=O)OCC1CN(C(=O)O[C@@H]2CC[C@]3(CO3)[C@@H]([C@@]3(C)O[C@@H]3CC=C(C)C)[C@@H]2OC)C1 |
| < 50 | CO[C@@H]1[C@H](OC(=O)N2CC(CCN3CCCC3)C2)CC[C@]2(CO2)[C@H]1[C@@]1(C)O[C@@H]1CC=C(C)C |
